Values of other authors, collected in patent US20260295002A1, “GASTROINTESTINAL RETENTIVE FORMULATIONS OF ECHINOCANDINS” (The Cleveland Clinic Foundation, priority 2023, published 2026).
Where a name gives a salt, the structure may show the parent alone.

Details: background statement

Row | oral bioavailability | SMILES
1 | poor oral bioavailability | CC[C@H](C)C[C@H](C)CCCCCCCCC(=O)N[C@H]1C[C@@H](O)[C@@H](NCCN)NC(=O)[C@@H]2[C@@H](O)CCN2C(=O)[C@H]([C@H](O)CCN)NC(=O)[C@H]([C@H](O)[C@@H](O)c2ccc(O)cc2)NC(=O)[C@@H]2C[C@@H](O)CN2C(=O)[C@H]([C@@H](C)O)NC1=O [caspofungin acetate, 1-[(4R,5S)-5-[(2-aminoethyl)amino]-N2-(10,12-dimethyl-1-oxotetradecyl)-4-hydroxy-L-ornithine]-5-[(3R)-3-hydroxy-L-ornithine]pneumocandin B0 diacetate (salt)]
2 | poor oral bioavailability | CCC(C)CC(C)CCCCCCCCC(=O)N[C@H]1C[C@@H](O)[C@@H](NCCN)NC(=O)[C@@H]2[C@@H](O)CCN2C(=O)[C@H]([C@H](O)CCN)NC(=O)[C@H]([C@H](O)[C@@H](O)c2ccc(O)cc2)NC(=O)[C@@H]2C[C@@H](O)CN2C(=O)[C@H]([C@@H](C)O)NC1=O (some centres unmarked) [Caspofungin]
